# Tests used:
# green foxtail [1] = experiment: Test Example 4: herbicidal effect by soil treatment (Table 19, symbol G); type: in vivo, green foxtail (Setaria viridis); conditions: 320 g/ha
# In short: (§1)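 Emulsion of test compound, water-diluted to predetermined amount, sprayed on soil after sowing (seed depth ~1.5 cm, sterilized diluvial soil). Greenhouse, 25–30° C. Effect graded at three weeks post-spray.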
# blackgrass [2] = experiment: Test Example 5: herbicidal effect by foliage application, plastic box (Table 20, symbol J); type: in vivo, blackgrass (Alopecurus myosuroides); conditions: foliage application, 320 g/ha
# In short: (§2)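 Post-emergence foliar test in sterilized diluvial soil. Compound applied as water-diluted emulsion at a predetermined rate to 14-day-old plants; evaluation at three weeks.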
# southern crabgrass [3] = experiment: Test Example 5: herbicidal effect by foliage application, plastic box (Table 20, symbol F); type: in vivo, southern crabgrass (Digitaria ciliaris); conditions: foliage application, 320 g/ha
# In short: as §2
# persian speedwell [4] = experiment: Test Example 5: herbicidal effect by foliage application, plastic box (Table 20, symbol R); type: in vivo, Persian speedwell (Veronica persica); conditions: foliage application, 320 g/ha
# In short: as §2
# wild oat [5] = experiment: Test Example 5: herbicidal effect by foliage application, plastic box (Table 20, symbol I); type: in vivo, wild oat (Avena fatua); conditions: foliage application, 320 g/ha
# In short: as §2
# windgrass [6] = experiment: Test Example 4: herbicidal effect by soil treatment (Table 19, symbol L); type: in vivo, windgrass (Apera spica-venti); conditions: 320 g/ha
# In short: as §1
# lambsquarters [7] = experiment: Test Example 5: herbicidal effect by foliage application, plastic box (Table 20, symbol O); type: in vivo, lambsquarters (Chenopodium album); conditions: foliage application, 320 g/ha
# In short: as §2
# Chinese sprangletop = experiment: Test Example 3: herbicidal effect by foliage application, Wagner pot (Table 18, symbol D); type: in vivo, chinese sprangletop (Leptochloa chinensis); conditions: 320 g/ha
# In short: (§3)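 Plants were sown in alluvial soil held under 0.1–0.5 cm standing water and grown 14 days in a greenhouse at 25–30 °C. An emulsifiable formulation, water-diluted to the set dose, was then sprayed onto the foliage, and effects were scored three weeks later using previously defined criteria.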
# Italian ryegrass [8] = experiment: Test Example 5: herbicidal effect by foliage application, plastic box (Table 20, symbol K); type: in vivo, Italian ryegrass (Lolium multiflorum); conditions: foliage application, 320 g/ha
# In short: as §2
# false cleavers = experiment: Test Example 5: herbicidal effect by foliage application, plastic box (Table 20, symbol Q); type: in vivo, false cleavers (Galium spurium); conditions: foliage application, 320 g/ha
# In short: as §2
# barnyard grass [9] = experiment: Test Example 4: herbicidal effect by soil treatment (Table 19, symbol H); type: in vivo, barnyard grass (Echinochloa crus-galli); conditions: 320 g/ha
# In short: as §1
# redroot pigweed [10] = experiment: Test Example 4: herbicidal effect by soil treatment (Table 19, symbol N); type: in vivo, redroot pigweed (Amaranthus retroflexus); conditions: 320 g/ha
# In short: as §1
# persian speedwell [11] = experiment: Test Example 4: herbicidal effect by soil treatment (Table 19, symbol R); type: in vivo, Persian speedwell (Veronica persica); conditions: 320 g/ha
# In short: as §1
# late watergrass [12] = experiment: Test Example 2: herbicidal activity, application during weed generation under submerged conditions (Table 17, symbol A); type: in vivo, late watergrass (Echinochloa oryzicola); conditions: AAH 320 g/ha; application during weed generation, submerged conditions
# In short: (§4)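 Steps: fill Wagner pots with alluvial soil; add water to give 4 cm depth; sow the species mixed; grow under glass at 25–30° C.; at 1–2 leaves apply water-diluted emulsion formulation to the water surface at a fixed herbicide amount; score after 3 weeks.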
# oval-leafed pondweed [13] = experiment: Test Example 2: herbicidal activity, application during weed generation under submerged conditions (Table 17, symbol C); type: in vivo, oval-leafed pondweed (Monochoria vaginalis); conditions: AAH 320 g/ha; application during weed generation, submerged conditions
# In short: as §4
# Japanese bulrush [14] = experiment: Test Example 2: herbicidal activity, application during weed generation under submerged conditions (Table 17, symbol B); type: in vivo, Japanese bulrush (Schoenoplectus juncoides); conditions: AAH 320 g/ha; application during weed generation, submerged conditions
# In short: as §4
# lambsquarters [15] = experiment: Test Example 4: herbicidal effect by soil treatment (Table 19, symbol O); type: in vivo, lambsquarters (Chenopodium album); conditions: 320 g/ha
# In short: as §1
# wild oat [16] = experiment: Test Example 4: herbicidal effect by soil treatment (Table 19, symbol I); type: in vivo, wild oat (Avena fatua); conditions: 320 g/ha
# In short: as §1
# chickweed [17] = experiment: Test Example 4: herbicidal effect by soil treatment (Table 19, symbol P); type: in vivo, common chickweed (Stellaria media); conditions: 320 g/ha
# In short: as §1
# Italian ryegrass [18] = experiment: Test Example 4: herbicidal effect by soil treatment (Table 19, symbol K); type: in vivo, Italian ryegrass (Lolium multiflorum); conditions: 320 g/ha
# In short: as §1
# blackgrass [19] = experiment: Test Example 4: herbicidal effect by soil treatment (Table 19, symbol J); type: in vivo, blackgrass (Alopecurus myosuroides); conditions: 320 g/ha
# In short: as §1
# rice flat sedge = experiment: Test Example 3: herbicidal effect by foliage application, Wagner pot (Table 18, symbol E); type: in vivo, rice flat sedge (Cyperus iria); conditions: 320 g/ha
# In short: as §3
# barnyard grass [20] = experiment: Test Example 5: herbicidal effect by foliage application, plastic box (Table 20, symbol H); type: in vivo, barnyard grass (Echinochloa crus-galli); conditions: foliage application, 320 g/ha
# In short: as §2
# barnyard grass [21] = experiment: Test Example 3: herbicidal effect by foliage application, Wagner pot (Table 18, symbol H); type: in vivo, barnyard grass (Echinochloa crus-galli); conditions: 320 g/ha
# In short: as §3
# windgrass [22] = experiment: Test Example 5: herbicidal effect by foliage application, plastic box (Table 20, symbol L); type: in vivo, windgrass (Apera spica-venti); conditions: foliage application, 320 g/ha
# In short: as §2
# green foxtail [23] = experiment: Test Example 5: herbicidal effect by foliage application, plastic box (Table 20, symbol G); type: in vivo, green foxtail (Setaria viridis); conditions: foliage application, 320 g/ha
# In short: as §2
# velvetleaf [24] = experiment: Test Example 5: herbicidal effect by foliage application, plastic box (Table 20, symbol M); type: in vivo, velvetleaf (Abutilon theophrasti); conditions: foliage application, 320 g/ha
# In short: as §2
# southern crabgrass [25] = experiment: Test Example 4: herbicidal effect by soil treatment (Table 19, symbol F); type: in vivo, southern crabgrass (Digitaria ciliaris); conditions: 320 g/ha
# In short: as §1
# velvetleaf [26] = experiment: Test Example 4: herbicidal effect by soil treatment (Table 19, symbol M); type: in vivo, velvetleaf (Abutilon theophrasti); conditions: 320 g/ha
# In short: as §1
# chickweed [27] = experiment: Test Example 5: herbicidal effect by foliage application, plastic box (Table 20, symbol P); type: in vivo, common chickweed (Stellaria media); conditions: foliage application, 320 g/ha, evaluated three weeks after application
# In short: as §2
# redroot pigweed [28] = experiment: Test Example 5: herbicidal effect by foliage application, plastic box (Table 20, symbol N); type: in vivo, redroot pigweed (Amaranthus retroflexus); conditions: foliage application, 320 g/ha, evaluated three weeks after application
# In short: as §2
# Japanese bulrush [29] = experiment: Test Example 1: herbicidal activity, application before weed generation under submerged conditions (Table 16, symbol B); type: in vivo, Japanese bulrush (Schoenoplectus juncoides); conditions: 320 g/ha applied herbicide
# In short: (§5)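 Emulsion formulation, water-diluted to set dose, was put onto the flooded surface (4 cm depth, alluvial soil) the same day weeds were sown and 2.5-leaf rice transplanted. After 3 weeks at 25-30 °C under glass, each species was rated 0 (≤5% kill) to 5 (≥90% kill).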
# oval-leafed pondweed [30] = experiment: Test Example 1: herbicidal activity, application before weed generation under submerged conditions (Table 16, symbol C); type: in vivo, oval-leafed pondweed (Monochoria vaginalis); conditions: 320 g/ha applied herbicide
# In short: as §5
# late watergrass [31] = experiment: Test Example 1: herbicidal activity, application before weed generation under submerged conditions (Table 16, symbol A); type: in vivo, late watergrass (Echinochloa oryzicola); conditions: 320 g/ha applied herbicide
# In short: as §5
# [32] = evaluated three weeks after application
smiles,measurement,setting,value
CCOc1ccccc1-c1sc2ccc(F)cc2c1-c1c(O)c(C)nn(C)c1=O [2-028],"herbicidal effect rating, G: green foxtail",green foxtail [1],2 (Herbicidal rate of 20% or more and less than 40%)
same,effect on blackgrass (J),blackgrass [2]; 3 weeks after application,4 (Herbicidal rate of 70% or more and less than 90%)
same,effect on southern crabgrass (F),southern crabgrass [3]; 3 weeks after application,3 (Herbicidal rate of 40% or more and less than 70%)
same,effect on persian speedwell (R),persian speedwell [4]; 3 weeks after application,5 (Herbicidal rate of 90% or more (almost completely withered))
same,effect on wild oat (I),wild oat [5]; 3 weeks after application,3 (Herbicidal rate of 40% or more and less than 70%)
same,"herbicidal effect rating, L: windgrass",windgrass [6],0 (Herbicidal rate of 5% or less (almost no effect))
same,effect on lambsquarters (O),lambsquarters [7]; 3 weeks after application,3 (Herbicidal rate of 40% or more and less than 70%)
same,"herbicidal effect on D (Chinese sprangletop), rating 0-5",Chinese sprangletop,3 (Herbicidal rate of 40% or more and less than 70%)
same,effect on Italian ryegrass (K),Italian ryegrass [8]; 3 weeks after application,3 (Herbicidal rate of 40% or more and less than 70%)
same,effect on false cleavers (Q),false cleavers; 3 weeks after application,5 (Herbicidal rate of 90% or more (almost completely withered))
same,"herbicidal effect rating, H: barnyard grass",barnyard grass [9],3 (Herbicidal rate of 40% or more and less than 70%)
same,"herbicidal effect rating, N: redroot pigweed",redroot pigweed [10],5 (Herbicidal rate of 90% or more (almost completely withered))
same,"herbicidal effect rating, R: persian speedwell",persian speedwell [11],5 (Herbicidal rate of 90% or more (almost completely withered))
same,"herbicidal effect rating, A: late watergrass",late watergrass [12],3 (Herbicidal rate of 40% or more and less than 70%)
same,"herbicidal effect rating, C: oval-leafed pondweed",oval-leafed pondweed [13],3 (Herbicidal rate of 40% or more and less than 70%)
same,"herbicidal effect rating, B: Japanese bulrush",Japanese bulrush [14],1 (Herbicidal rate of 5% or more and less than 20%)
same,"herbicidal effect rating, O: lambsquarters",lambsquarters [15],3 (Herbicidal rate of 40% or more and less than 70%)
same,"herbicidal effect rating, I: wild oat",wild oat [16],0 (Herbicidal rate of 5% or less (almost no effect))
same,"herbicidal effect rating, P: chickweed",chickweed [17],4 (Herbicidal rate of 70% or more and less than 90%)
same,"herbicidal effect rating, K: Italian ryegrass",Italian ryegrass [18],0 (Herbicidal rate of 5% or less (almost no effect))
same,"herbicidal effect rating, J: blackgrass",blackgrass [19],0 (Herbicidal rate of 5% or less (almost no effect))
same,"herbicidal effect on E (rice flat sedge), rating 0-5",rice flat sedge,5 (Herbicidal rate of 90% or more (almost completely withered))
same,effect on barnyard grass (H),barnyard grass [20]; 3 weeks after application,4 (Herbicidal rate of 70% or more and less than 90%)
same,"herbicidal effect on H (barnyard grass), rating 0-5",barnyard grass [21],4 (Herbicidal rate of 70% or more and less than 90%)
same,effect on windgrass (L),windgrass [22]; 3 weeks after application,4 (Herbicidal rate of 70% or more and less than 90%)
same,effect on green foxtail (G),green foxtail [23]; 3 weeks after application,4 (Herbicidal rate of 70% or more and less than 90%)
same,effect on velvetleaf (M),velvetleaf [24]; 3 weeks after application,4 (Herbicidal rate of 70% or more and less than 90%)
same,"herbicidal effect rating, F: southern crabgrass",southern crabgrass [25],3 (Herbicidal rate of 40% or more and less than 70%)
same,"herbicidal effect rating, M: velvetleaf",velvetleaf [26],3 (Herbicidal rate of 40% or more and less than 70%)
COCCOCOc1c(C)nn(C)c(=O)c1-c1c(-c2ccc(OCc3ccccc3)cc2)sc2ccc(F)cc12 [2-064],herbicidal effect on J: blackgrass,blackgrass [2]; [32],0 (Herbicidal rate of 5% or less (almost no effect))
same,herbicidal effect on P: chickweed,chickweed [27],4 (Herbicidal rate of 70% or more and less than 90%)
same,herbicidal effect on F: southern crabgrass,southern crabgrass [3]; [32],3 (Herbicidal rate of 40% or more and less than 70%)
same,herbicidal effect on R: persian speedwell,persian speedwell [4]; [32],4 (Herbicidal rate of 70% or more and less than 90%)
same,herbicidal effect on I: wild oat,wild oat [5]; [32],0 (Herbicidal rate of 5% or less (almost no effect))
same,herbicidal effect on O: lambsquarters,lambsquarters [7]; [32],4 (Herbicidal rate of 70% or more and less than 90%)
same,"herbicidal effect on D (Chinese sprangletop), rating 0-5",Chinese sprangletop,3 (Herbicidal rate of 40% or more and less than 70%)
same,herbicidal effect on K: Italian ryegrass,Italian ryegrass [8]; [32],0 (Herbicidal rate of 5% or less (almost no effect))
same,herbicidal effect on Q: false cleavers,false cleavers; [32],4 (Herbicidal rate of 70% or more and less than 90%)
same,herbicidal effect on N: redroot pigweed,redroot pigweed [28],5 (Herbicidal rate of 90% or more (almost completely withered))
same,"herbicidal effect rating, A: late watergrass",late watergrass [12],3 (Herbicidal rate of 40% or more and less than 70%)
same,"herbicidal effect rating, C: oval-leafed pondweed",oval-leafed pondweed [13],0 (Herbicidal rate of 5% or less (almost no effect))
same,Herbicidal effect on B: Japanese bulrush (grade 0-5),Japanese bulrush [29],4 (Herbicidal rate of 70% or more and less than 90%)
same,"herbicidal effect rating, B: Japanese bulrush",Japanese bulrush [14],3 (Herbicidal rate of 40% or more and less than 70%)
same,Herbicidal effect on C: oval-leafed pondweed (grade 0-5),oval-leafed pondweed [30],3 (Herbicidal rate of 40% or more and less than 70%)
same,Herbicidal effect on A: late watergrass (grade 0-5),late watergrass [31],4 (Herbicidal rate of 70% or more and less than 90%)
same,"herbicidal effect on E (rice flat sedge), rating 0-5",rice flat sedge,0 (Herbicidal rate of 5% or less (almost no effect))
same,herbicidal effect on H: barnyard grass,barnyard grass [20]; [32],3 (Herbicidal rate of 40% or more and less than 70%)
same,"herbicidal effect on H (barnyard grass), rating 0-5",barnyard grass [21],3 (Herbicidal rate of 40% or more and less than 70%)
same,herbicidal effect on L: windgrass,windgrass [22]; [32],0 (Herbicidal rate of 5% or less (almost no effect))
same,herbicidal effect on G: green foxtail,green foxtail [23]; [32],3 (Herbicidal rate of 40% or more and less than 70%)
same,herbicidal effect on M: velvetleaf,velvetleaf [24]; [32],3 (Herbicidal rate of 40% or more and less than 70%)

# From patent publication US20230085307A1, “PYRIDAZINONE COMPOUND AND HERBICIDE” (NISSAN CHEMICAL CORPORATION, priority 2019, published 2023)
